How the values were obtained:
[1] = biological target: human albumin (ALB) (Homo sapiens, UniProt P02768); assay: Competitive T4 radio-ligand (125I-T4) binding assay with human albumin; details: 600 nM ALB
Source text: (§1) The entire assay takes two days to complete for each batch of samples to be processed. The Day 1 procedure is described as follows. […] First, thaw the working solutions of these components to room temperature if they have been placed in frozen storage. For the protein working solutions, prepare the day they are to be used based on the number of assay aliquots required (one vial is sufficient for approximately 45 assay samples). […] Label a series of polypropylene test tubes corresponding to the samples being prepared. This should include triplicate samples for each ligand competitor concentration.
(§2) The following steps describe the order of pipetting components for assay incubation mixtures. • 1. […] Continue for each increasing concentration of the ligand. Control samples receive 5 μL of DMSO in place of a competitor ligand. • 2. […] Centrifuge the samples at 300 × g for 30 s to force the solution to the bottom of the tube. • 4. Measure the initial radioactivity on the gamma counter. […]
(§3) Label a series of clean test tubes corresponding to the samples prepared on Day 1 and repeat these labels on Bio-Spin® columns. Work on one replicate set at a time, leaving the remaining columns and incubation mixtures in the fridge until ready for processing. […] Measure the radioactivity of the eluate fraction, as well as the residual radioactivity in the incubation tubes containing the discarded pipette tips. […]

[2] = biological target: human transthyretin (TTR) (Homo sapiens, UniProt P02766); assay: Competitive T4 radio-ligand (125I-T4) binding assay with human transthyretin; details: 30 nM TTR
Source text: as §1, §2, §3

[3] = test system: human TTR isolated from human plasma; design: method as in PMID 19033396; details: in vitro; cited from earlier work

human albumin (ALB), sequence (P02768 25-609): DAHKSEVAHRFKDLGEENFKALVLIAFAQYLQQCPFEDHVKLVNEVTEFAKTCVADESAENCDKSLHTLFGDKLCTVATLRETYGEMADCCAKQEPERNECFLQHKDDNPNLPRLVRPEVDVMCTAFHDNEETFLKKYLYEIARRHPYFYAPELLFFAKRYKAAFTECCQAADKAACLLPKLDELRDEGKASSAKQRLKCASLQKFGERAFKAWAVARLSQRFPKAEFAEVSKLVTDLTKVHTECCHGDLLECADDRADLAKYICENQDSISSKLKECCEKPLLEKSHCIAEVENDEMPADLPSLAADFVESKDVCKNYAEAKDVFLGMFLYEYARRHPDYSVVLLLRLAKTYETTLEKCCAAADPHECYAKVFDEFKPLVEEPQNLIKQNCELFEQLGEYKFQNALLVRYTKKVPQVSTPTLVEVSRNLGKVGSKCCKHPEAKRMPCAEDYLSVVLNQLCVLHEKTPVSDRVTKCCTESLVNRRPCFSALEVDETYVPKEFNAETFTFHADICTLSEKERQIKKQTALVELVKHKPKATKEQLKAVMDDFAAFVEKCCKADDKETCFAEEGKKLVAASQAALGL

`Oc1cc(Br)c(Oc2ccc(Br)cc2Br)cc1Br` [4-OH-BDE-49, 4′-hydroxy-2,2′,4,5′-tetrabromodiphenyl ether] showed an IC50 ([1]; read-out: IC50, T4-ALB competitive binding, 55 nM T4 + 125I-T4, overnight at 4 °C, Tris-EDTA pH 8.0, 6 replicates) of 1.15 nM, a Ki ([1]; read-out: Ki, T4-ALB competitive binding, calculated from IC50 after Cheng and Prusoff, unit inferred) of 1.08 nM and an IC50 ([2]; read-out: IC50, T4-TTR competitive binding, 55 nM T4 + 125I-T4, overnight at 4 °C, Tris-EDTA pH 8.0, 6 replicates) of 12.2 nM. For the same compound, the Ki ([2]; read-out: Ki, T4-TTR competitive binding, calculated from IC50 after Cheng and Prusoff, unit inferred) was 12.2 nM and the “Binding affinity for human TTR compared with T4” value [3] was “higher affinity than T4”.

Reference: PMC5671392, “Optimization of an in vitro assay methodology for competitive binding of thyroidogenic xenobiotics with thyroxine on human transthyretin and albumin” (MethodsX, 2017)
